According to ChEMBL document CHEMBL1201862, “PubChem BioAssay data set” (2004):
Each block holds one compound with its values, some of them ahead of it. The source made the active and inactive calls. Rule as the data show it, for most assays here: actives have a measured IC50 and inactives only a lower limit.

Assays:
[1] = biological target: T1, Short transient receptor potential channel 4 (Mus musculus, UniProt Q9QUQ5); assay: TRPC4 positive allosteric modulators, dose response, cell-based, HEK293 TRPC4/mu-opioid, Fluo-4 calcium, EC20 DAMGO (AID 434941); format: functional
T1 sequence (Q9QUQ5 whole entry): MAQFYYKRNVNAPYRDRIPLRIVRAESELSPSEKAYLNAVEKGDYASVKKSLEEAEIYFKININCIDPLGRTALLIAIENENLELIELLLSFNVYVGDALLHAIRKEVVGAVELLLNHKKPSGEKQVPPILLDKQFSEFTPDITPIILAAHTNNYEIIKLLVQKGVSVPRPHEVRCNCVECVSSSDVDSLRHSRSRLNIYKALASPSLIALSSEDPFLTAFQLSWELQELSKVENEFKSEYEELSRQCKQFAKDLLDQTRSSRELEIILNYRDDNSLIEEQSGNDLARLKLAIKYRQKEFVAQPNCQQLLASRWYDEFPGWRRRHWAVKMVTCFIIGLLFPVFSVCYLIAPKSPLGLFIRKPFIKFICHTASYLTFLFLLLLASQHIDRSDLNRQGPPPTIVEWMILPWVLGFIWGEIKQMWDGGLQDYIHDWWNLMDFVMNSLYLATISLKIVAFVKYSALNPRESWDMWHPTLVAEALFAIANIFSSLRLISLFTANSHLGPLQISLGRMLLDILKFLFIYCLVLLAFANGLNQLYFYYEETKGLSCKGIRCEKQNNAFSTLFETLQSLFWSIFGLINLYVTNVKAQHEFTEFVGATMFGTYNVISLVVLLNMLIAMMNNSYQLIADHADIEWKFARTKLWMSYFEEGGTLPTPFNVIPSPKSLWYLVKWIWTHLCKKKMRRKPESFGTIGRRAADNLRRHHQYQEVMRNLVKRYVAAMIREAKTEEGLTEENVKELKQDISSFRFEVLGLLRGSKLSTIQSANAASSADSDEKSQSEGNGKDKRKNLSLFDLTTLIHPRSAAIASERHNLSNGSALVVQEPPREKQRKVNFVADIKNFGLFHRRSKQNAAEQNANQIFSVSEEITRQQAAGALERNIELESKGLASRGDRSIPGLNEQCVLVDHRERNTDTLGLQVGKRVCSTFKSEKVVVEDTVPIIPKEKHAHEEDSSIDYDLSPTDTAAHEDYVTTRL

[2] = biological target: T2, Mannose-6-phosphate isomerase (Homo sapiens, UniProt P34949); assay: PMI enzyme inhibitors, confirmation, biochemical, fluorescence intensity (AID 1535)
T2 sequence (P34949 whole entry): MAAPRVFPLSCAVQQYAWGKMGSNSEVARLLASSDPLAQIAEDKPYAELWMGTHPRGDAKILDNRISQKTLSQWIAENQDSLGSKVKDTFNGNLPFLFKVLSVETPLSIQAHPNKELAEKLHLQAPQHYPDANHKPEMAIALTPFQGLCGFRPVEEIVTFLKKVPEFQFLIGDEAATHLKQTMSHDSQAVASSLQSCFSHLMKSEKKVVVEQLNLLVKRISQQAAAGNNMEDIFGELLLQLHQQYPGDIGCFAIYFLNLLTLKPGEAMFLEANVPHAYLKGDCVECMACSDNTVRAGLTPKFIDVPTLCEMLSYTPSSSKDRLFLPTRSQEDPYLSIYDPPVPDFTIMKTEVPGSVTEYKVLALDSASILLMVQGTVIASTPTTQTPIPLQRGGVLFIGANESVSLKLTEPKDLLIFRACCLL

[3] = biological target: T2, Mannose-6-phosphate isomerase; assay: Confirmation of compounds inhibiting phosphomannose isomerase (PMI) via a fluorescence intensity assay using a high concentration of mannose 6-phosphate. [Related pubchem assays (depositor defined):AID1209, AID1220, AID1545, AID1553, AID1620]
[4] = biological target: Alkaline phosphatase, placental type (Homo sapiens, UniProt P05187); assay: PLAP enzyme inhibitors, confirmation, biochemical, luminescence (AID 1512); format: functional
[5] = biological target: T1, Short transient receptor potential channel 4; assay: mouse TRPC4 channel inhibitors, dose response, cell-based, HEK293 TRPC4/mu-opioid, Fluo-4 calcium (AID 434942); format: functional;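 also: potency of inhibitors blocking the TRPC4 calcium response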
[6] = biological target: Envelope glycoprotein gp160 (Human immunodeficiency virus 1, UniProt Q6QLK5); assay: inhibitors of HIV fusion peptide binding, primary screen, biochemical, uHTS, fluorescence dequenching (AID 1986)
[7] = biological target: Type-1 angiotensin II receptor (Homo sapiens, UniProt P30556); assay: AT1 receptor agonists, dose response, selectivity assay for APJ receptor agonist project, cell-based, uHTS hits (AID 488865); format: functional;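 also: beta-arrestin recruitment to AT1 measured by enzyme fragment complementation luminescence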
[8] = biological target: T3, Tyrosine-protein phosphatase non-receptor type 7 (Homo sapiens, UniProt P35236); assay: redox-dependent HePTP inhibition, mechanism study, biochemical, fluorescence (AID 2068); format: functional
T3 sequence (P35236 whole entry): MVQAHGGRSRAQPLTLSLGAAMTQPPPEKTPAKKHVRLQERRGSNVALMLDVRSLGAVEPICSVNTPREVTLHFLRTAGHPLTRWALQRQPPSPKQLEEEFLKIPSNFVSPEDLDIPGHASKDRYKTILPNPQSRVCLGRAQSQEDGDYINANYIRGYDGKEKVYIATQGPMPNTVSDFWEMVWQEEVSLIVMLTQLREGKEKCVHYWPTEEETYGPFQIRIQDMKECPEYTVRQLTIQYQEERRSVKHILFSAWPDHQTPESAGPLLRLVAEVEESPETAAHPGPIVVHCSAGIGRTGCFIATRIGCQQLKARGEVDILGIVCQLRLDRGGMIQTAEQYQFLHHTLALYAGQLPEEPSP

[9] = biological target: T4, Dual specificity protein phosphatase 6 (Rattus norvegicus, UniProt Q64346); format: functional;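 also: confirmatory in vitro dose-response testing of MKP-3 inhibition; recombinant His-tagged MKP-3 made in E. coli BL21 with OMFP substrate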
T4 sequence (Q64346 whole entry): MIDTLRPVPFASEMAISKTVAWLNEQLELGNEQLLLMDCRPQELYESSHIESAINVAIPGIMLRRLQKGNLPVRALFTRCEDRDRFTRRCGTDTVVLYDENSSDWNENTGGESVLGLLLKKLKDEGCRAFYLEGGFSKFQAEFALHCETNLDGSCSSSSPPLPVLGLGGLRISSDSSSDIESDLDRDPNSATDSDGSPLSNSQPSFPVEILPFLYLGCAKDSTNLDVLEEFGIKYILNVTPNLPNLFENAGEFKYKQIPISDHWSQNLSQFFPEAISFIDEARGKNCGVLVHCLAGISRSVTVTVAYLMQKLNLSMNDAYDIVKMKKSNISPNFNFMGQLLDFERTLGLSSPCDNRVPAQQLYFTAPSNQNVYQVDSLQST

Sequence of Type-1 angiotensin II receptor (P30556 whole entry, the tested form may be a part): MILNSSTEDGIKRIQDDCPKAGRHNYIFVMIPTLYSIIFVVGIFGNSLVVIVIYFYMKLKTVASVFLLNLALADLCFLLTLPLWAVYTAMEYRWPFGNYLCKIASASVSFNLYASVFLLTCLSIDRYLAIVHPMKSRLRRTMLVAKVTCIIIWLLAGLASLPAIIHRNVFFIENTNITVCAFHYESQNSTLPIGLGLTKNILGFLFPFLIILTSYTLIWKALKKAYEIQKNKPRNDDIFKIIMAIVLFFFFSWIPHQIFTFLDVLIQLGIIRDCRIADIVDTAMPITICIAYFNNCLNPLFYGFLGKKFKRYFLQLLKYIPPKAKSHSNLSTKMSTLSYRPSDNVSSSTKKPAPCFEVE
Sequence of Alkaline phosphatase, placental type (P05187 whole entry): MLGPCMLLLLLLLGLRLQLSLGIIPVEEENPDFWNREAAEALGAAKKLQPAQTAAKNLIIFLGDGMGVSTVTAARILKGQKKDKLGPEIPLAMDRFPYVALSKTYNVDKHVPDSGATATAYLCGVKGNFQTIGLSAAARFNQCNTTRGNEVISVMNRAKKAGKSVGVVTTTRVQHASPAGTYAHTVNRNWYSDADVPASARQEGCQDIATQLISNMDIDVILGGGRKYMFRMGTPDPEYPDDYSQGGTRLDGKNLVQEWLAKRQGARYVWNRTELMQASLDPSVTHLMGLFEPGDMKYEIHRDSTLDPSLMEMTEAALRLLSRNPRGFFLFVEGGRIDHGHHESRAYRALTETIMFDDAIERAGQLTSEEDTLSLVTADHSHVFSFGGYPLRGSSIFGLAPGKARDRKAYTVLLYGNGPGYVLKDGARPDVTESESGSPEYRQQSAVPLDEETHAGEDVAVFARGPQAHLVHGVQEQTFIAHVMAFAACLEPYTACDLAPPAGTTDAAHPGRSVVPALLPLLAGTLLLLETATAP
Sequence of Envelope glycoprotein gp160 (Q6QLK5 whole entry, the tested form may be a part): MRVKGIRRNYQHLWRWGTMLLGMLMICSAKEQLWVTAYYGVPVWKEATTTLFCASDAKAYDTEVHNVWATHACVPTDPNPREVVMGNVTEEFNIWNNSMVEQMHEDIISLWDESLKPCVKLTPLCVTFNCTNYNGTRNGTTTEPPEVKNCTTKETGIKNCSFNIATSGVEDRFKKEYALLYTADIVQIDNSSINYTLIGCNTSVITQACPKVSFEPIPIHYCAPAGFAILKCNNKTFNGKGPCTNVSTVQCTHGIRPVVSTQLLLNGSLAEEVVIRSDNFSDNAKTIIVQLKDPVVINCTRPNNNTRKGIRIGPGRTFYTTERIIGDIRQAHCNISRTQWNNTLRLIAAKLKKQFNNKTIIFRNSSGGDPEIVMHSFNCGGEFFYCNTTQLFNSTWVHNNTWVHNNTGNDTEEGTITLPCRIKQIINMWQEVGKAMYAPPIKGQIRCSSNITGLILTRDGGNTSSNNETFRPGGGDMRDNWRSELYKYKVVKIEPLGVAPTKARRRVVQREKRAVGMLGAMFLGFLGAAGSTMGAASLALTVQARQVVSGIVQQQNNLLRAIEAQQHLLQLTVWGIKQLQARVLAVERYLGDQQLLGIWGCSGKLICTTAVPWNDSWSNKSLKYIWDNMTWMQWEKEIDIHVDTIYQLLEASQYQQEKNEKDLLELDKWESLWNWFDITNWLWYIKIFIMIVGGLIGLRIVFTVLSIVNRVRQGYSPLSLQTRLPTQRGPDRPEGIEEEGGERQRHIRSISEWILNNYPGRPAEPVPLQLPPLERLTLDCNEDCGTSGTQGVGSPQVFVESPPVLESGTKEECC

Compound: CCOC(=O)C(O)(c1ccc(NC(=S)NC(=O)c2ccc(Cl)cc2Cl)c(C)c1)C(F)(F)F (centres undefined)
EC50 [1]: 3.35 µM (active)

Compound: Cc1cc(C)n2nc3nc(N4CCCCC4)nc(-c4ccco4)c3c2n1
EC50 [7]: > 100 µM (inactive)

Compound: COc1cc(C(=S)NCc2ccccc2)ccc1O
IC50 [8]: 0.665 µM (active)
IC50 [9]: > 100 µM (inactive)

Further lines, results first:

IC50 [2]: > 100 µM (inactive)
IC50 [3]: > 100 µM (inactive)
IC50 [4]: > 100 µM (inactive)
Compound: O=C1Nc2ccc([N+](=O)[O-])cc2C12NNc1ccccc1O2 (centres undefined)

EC50 [5]: 4.22 µM (active)
IC50 [6]: > 99 µM (inactive)
Compound: CCOc1ccc(NC(=O)c2cnn3c(O)cc(C4CCN(C(=O)OC(C)(C)C)CC4)nc23)cc1
